Assay [1] has as its system lipoperoxide formed in the brain homogenate. Briefly: Lipoperoxide formation inhibitory effect (thiobarbituric acid (TBA) method, brain homogenate). The note with it: rat cerebral cortex homogenate supernatant, 37° C., 30 minutes, pH 7.4, malondialdehyde at 532 nm. It is filed as biochemical, Wistar male rats. On the procedure: The lipoperoxide formed in the brain homogenate was quantified by the thiobarbituric acid (TBA) method of Stocks et al. (Cli. Sci. Mol. Med. 47, 215 (1974)). The cerebral cortex was removed from Wistar male rats (10 weeks old), and homogenized in ice-cooled phosphate physiological saline buffer (40 mM KH2 PO4 /K2 HPO4, 0.142M NaCl, pH 7.4). The homogenate was centrifuged at 1,000×g for 10 minutes, and the supernatant of the homogenate was used for the experiment. A solution of the test compound in ethanol (10 μl) was added to the supernatant (1 ml), and the mixture was incubated at 37° C. for 30 minutes. The reaction was stopped by adding 35% perchloric acid solution (200 μl). The reaction mixture was centrifuged at 13,000× g for 10 minutes, and 1% thiobarbituric acid solution (250 μl) was added to the supernatant (1.0 ml). The mixture was heated at 100° C. for 15 minutes, and then the amount of malondialdehyde formed by decomposition of the lipoperoxide was determined by colorimetry (532 nm).

In another assay the test system is Na+ channel site 1. It counts as binding, SD male rats. The note with it: [3H]-saxitoxin 2 nM, rat forebrain homogenate, 37° C., 30 minutes.
A further assay relates to Na+ channel site 2. Set-up: species or system SD male rats. The conditions noted are these: [3H]-batrachotoxin 2 nM, rat forebrain homogenate, 37° C., 45 minutes; read-out: IC50 (Na+ channel binding, site 2).

Consider `CC1=C(C)C(=O)C(C[C@](C)(O)CN2CCC(c3ccccc3)CC2)=C(C)C1=O` [compound (A), (S)-2-[2-Hydroxy-2-methyl-3-(4-phenylpiperidin-1-yl)propyl]-3,5,6-trimethyl-1,4-benzoquinone], for which the values for the IC50 (in assay [1]; in the assay on Na+ channel site 2) were 3.5 ± 0.56 µM and 0.9 µM, respectively. In the assay on Na+ channel site 1, the “effect on site 1 of Na channels” value is on record as “no effect”.
For vitamin E [reference compound], the half-maximal inhibitory concentration (IC50) in assay [1] came to 203 ± 43 µM.
